Two compounds from ChEMBL document CHEMBL4002580, “Chloromethylhalicyclamine B, a Marine-Derived Protein Kinase CK1δ/ε Inhibitor” (J Nat Prod, 2016) can be followed below.

Experiment [1] concerns the target Dual specificity tyrosine-phosphorylation-regulated kinase 1A (Homo sapiens) (UniProt Q13627). Briefly: Inhibition of GST-fused DYRK1A (unknown origin) expressed in Escherichia coli at 0.003 to 10 uM using RS peptide as substrate after 30 mins in presence of [gamma-33P]ATP by scintillation counting method.
For another experiment, the species on record is Homo sapiens. Put plainly: Inhibition of GSK3 (unknown origin) at 0.003 to 10 uM using GS-1 as substrate after 30 mins in presence of [gamma-33P]ATP by scintillation counting method.
Experiment [2] concerns the target Cyclin-dependent kinase 5/CDK5 activator 1 (Homo sapiens) (UniProt Q00535+Q15078). Briefly: Inhibition of recombinant human CDK5/p25 expressed in Escherichia coli at 0.003 to 10 uM using histone H1 as substrate after 30 mins in presence of [gamma-33P]ATP by scintillation counting method.
For experiment [3], the target named is CDK9/cyclin T1 (Homo sapiens) (UniProt O60563+P50750). Put plainly: Inhibition of recombinant human CDK9/cyclin T expressed in insect cells at 0.003 to 10 uM using CDK7/9-Tide as substrate after 30 mins in presence of [gamma-33P]ATP by scintillation counting method.
For the next experiment, the species on record is Sus scrofa. Put plainly: Inhibition of porcine brain CK1delta/epsilon at 0.003 to 10 uM using CKS peptide as substrate after 30 mins in presence of [gamma-33P]ATP by scintillation counting method.
The target in experiment [4] is Dual specificity protein kinase CLK1 (Mus musculus) (UniProt P22518). Put plainly: Inhibition of mouse recombinant GST-fused CLK1 expressed in Escherichia coli at 0.003 to 10 uM using RS peptide as substrate after 30 mins in presence of [gamma-33P]ATP by scintillation counting method.
Dual specificity protein kinase CLK1 (Mus musculus), sequence (P22518 whole entry, looked up, the tested form may be a part): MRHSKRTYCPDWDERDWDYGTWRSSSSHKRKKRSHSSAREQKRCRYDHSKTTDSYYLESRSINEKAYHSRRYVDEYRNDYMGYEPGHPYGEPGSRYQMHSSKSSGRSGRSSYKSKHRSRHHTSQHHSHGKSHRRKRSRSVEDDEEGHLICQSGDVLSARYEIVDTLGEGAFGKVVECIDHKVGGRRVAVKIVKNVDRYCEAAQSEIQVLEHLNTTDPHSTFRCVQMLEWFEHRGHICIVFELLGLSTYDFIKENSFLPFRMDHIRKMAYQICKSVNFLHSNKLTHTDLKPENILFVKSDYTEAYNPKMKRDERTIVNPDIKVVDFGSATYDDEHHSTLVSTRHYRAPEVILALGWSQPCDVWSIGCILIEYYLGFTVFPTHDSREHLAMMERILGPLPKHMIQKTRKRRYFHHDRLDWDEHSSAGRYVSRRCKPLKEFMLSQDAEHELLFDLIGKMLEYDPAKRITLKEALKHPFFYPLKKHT
For experiment [5], the target named is Dual specificity protein kinase CLK2 (Mus musculus) (UniProt O35491). Briefly: Inhibition of mouse recombinant GST-fused CLK2 expressed in Escherichia coli at 0.003 to 10 uM using RS peptide as substrate after 30 mins in presence of [gamma-33P]ATP by scintillation counting method.
Dual specificity protein kinase CLK2 (Mus musculus), sequence (O35491 whole entry, looked up, the tested form may be a part): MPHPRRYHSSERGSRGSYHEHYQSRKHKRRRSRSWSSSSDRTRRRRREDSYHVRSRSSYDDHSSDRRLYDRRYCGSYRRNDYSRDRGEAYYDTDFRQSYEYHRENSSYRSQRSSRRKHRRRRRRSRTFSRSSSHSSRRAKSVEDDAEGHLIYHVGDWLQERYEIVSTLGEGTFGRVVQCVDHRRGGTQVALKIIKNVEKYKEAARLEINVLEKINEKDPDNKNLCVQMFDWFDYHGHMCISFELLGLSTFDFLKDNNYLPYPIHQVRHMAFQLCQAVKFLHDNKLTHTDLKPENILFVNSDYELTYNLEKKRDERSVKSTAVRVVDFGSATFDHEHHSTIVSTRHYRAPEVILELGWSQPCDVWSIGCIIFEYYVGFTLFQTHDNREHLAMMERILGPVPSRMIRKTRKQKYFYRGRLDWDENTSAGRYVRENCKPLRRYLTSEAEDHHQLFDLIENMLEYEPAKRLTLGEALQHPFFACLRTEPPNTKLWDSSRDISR
The target in experiment [6] is CDK2/Cyclin A2 (Homo sapiens) (UniProt P24941+P20248). Briefly: Inhibition of CDK2/cyclin A (unknown origin) at 0.003 to 10 uM after 30 mins in presence of [gamma-33P]ATP by scintillation counting method. Type of experiment: protein-complex assay.
Experiment [7] deals with Dual specificity tyrosine-phosphorylation-regulated kinase 1B (Homo sapiens) (UniProt Q9Y463). Briefly: Inhibition of human recombinant GST-fused DYRK1B expressed in Escherichia coli at 0.003 to 10 uM using RS peptide as substrate after 30 mins in presence of [gamma-33P]ATP by scintillation counting method.
Dual specificity tyrosine-phosphorylation-regulated kinase 1B (Homo sapiens), sequence (Q9Y463 whole entry, looked up, the tested form may be a part): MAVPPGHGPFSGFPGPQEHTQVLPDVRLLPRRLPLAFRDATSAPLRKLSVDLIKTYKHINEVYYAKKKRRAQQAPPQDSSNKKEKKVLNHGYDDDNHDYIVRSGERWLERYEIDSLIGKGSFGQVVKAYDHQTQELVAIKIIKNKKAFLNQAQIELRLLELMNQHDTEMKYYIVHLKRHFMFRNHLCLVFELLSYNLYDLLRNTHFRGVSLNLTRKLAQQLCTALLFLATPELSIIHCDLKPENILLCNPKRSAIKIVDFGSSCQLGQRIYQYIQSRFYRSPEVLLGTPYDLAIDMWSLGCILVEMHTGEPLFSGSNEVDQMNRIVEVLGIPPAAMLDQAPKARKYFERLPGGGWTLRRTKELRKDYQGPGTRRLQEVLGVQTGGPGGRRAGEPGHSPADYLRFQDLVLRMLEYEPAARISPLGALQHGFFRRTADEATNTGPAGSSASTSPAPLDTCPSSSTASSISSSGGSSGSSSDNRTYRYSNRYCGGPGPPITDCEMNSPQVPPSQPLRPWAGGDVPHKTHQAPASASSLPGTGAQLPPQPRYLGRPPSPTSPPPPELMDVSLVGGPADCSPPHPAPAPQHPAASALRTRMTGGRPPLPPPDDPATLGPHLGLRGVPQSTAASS
In experiment [8] the target is Dual specificity protein kinase CLK3 (Mus musculus) (UniProt O35492). Put plainly: Inhibition of mouse recombinant GST-fused CLK3 expressed in Escherichia coli at 0.003 to 10 uM using RS peptide as substrate after 30 mins in presence of [gamma-33P]ATP by scintillation counting method.
Dual specificity protein kinase CLK3 (Mus musculus), sequence (O35492 whole entry, the tested form may be a part): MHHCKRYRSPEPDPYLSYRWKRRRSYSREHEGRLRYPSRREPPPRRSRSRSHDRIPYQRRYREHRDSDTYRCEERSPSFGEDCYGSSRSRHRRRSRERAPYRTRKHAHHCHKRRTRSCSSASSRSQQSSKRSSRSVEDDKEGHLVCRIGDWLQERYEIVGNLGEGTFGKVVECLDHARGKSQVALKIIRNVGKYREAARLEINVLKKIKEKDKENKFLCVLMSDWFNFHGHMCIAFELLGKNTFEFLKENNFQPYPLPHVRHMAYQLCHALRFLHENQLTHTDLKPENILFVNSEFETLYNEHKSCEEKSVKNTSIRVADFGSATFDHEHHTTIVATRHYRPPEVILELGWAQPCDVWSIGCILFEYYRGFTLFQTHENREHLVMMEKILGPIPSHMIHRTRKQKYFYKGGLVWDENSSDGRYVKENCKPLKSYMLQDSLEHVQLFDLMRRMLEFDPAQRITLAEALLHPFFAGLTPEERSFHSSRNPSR
Experiment [9] can be described thus: Inhibition of porcine brain CK1delta/epsilon using CKS peptide as substrate after 30 mins in presence of [gamma-33P]ATP by scintillation counting method. Further details: species or system Sus scrofa.
The target of experiment [10] is T1, Dual specificity tyrosine-phosphorylation-regulated kinase 3 (Homo sapiens) (UniProt O43781).
T1 sequence (whole entry): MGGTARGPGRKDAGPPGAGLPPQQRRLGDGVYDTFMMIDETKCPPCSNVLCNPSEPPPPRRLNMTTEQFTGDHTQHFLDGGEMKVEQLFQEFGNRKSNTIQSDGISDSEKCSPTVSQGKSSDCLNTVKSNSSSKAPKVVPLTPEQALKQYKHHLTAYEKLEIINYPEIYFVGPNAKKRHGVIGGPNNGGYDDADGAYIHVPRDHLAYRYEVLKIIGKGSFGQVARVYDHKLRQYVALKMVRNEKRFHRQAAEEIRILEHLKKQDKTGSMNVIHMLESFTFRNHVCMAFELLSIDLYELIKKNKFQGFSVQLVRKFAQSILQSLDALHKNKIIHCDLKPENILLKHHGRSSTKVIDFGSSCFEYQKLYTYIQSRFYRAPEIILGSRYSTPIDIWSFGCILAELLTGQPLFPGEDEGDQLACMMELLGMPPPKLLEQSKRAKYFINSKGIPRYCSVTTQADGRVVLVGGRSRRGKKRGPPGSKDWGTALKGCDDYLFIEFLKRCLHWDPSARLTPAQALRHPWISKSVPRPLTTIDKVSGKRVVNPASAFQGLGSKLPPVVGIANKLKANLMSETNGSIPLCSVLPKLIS
Briefly: Inhibition of human recombinant GST-fused DYRK3 expressed in Escherichia coli at 0.003 to 10 uM using RS peptide as substrate after 30 mins in presence of [gamma-33P]ATP by scintillation counting method.

In experiment [11] the target is T2, Dual specificity tyrosine-phosphorylation-regulated kinase 2 (Homo sapiens) (UniProt Q92630).
T2 sequence (whole entry): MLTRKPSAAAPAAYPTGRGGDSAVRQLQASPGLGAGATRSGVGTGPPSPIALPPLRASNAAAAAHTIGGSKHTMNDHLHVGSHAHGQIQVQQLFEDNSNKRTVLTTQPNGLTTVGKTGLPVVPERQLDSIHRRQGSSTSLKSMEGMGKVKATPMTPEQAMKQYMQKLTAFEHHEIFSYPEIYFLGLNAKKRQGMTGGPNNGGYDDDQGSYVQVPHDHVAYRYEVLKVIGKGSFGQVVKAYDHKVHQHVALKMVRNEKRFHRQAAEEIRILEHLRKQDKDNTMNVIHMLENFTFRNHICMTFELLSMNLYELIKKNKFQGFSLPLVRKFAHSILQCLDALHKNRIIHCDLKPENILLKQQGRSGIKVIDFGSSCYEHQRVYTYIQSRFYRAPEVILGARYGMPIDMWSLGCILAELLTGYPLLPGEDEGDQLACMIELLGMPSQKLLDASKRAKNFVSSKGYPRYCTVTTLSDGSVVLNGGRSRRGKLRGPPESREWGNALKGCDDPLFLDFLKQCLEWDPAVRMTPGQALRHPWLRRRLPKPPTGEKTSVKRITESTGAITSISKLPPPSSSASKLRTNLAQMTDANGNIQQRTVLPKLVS
Briefly: Inhibition of human recombinant GST-fused DYRK2 expressed in Escherichia coli at 0.003 to 10 uM using RS peptide as substrate after 30 mins in presence of [gamma-33P]ATP by scintillation counting method.

Experiment [12] has as its target Dual specificity protein kinase CLK4 (Mus musculus) (UniProt O35493). Put plainly: Inhibition of mouse recombinant GST-fused CLK4 expressed in Escherichia coli at 0.003 to 10 uM using RS peptide as substrate after 30 mins in presence of [gamma-33P]ATP by scintillation counting method.
Another experiment concerns Leishmania major. Briefly: Inhibition of Leishmania major recombinant CK1 expressed in Escherichia coli at 0.003 to 10 uM using CKS peptide as substrate after 30 mins in presence of [gamma-33P]ATP by scintillation counting method.

pIC50: −log10 of the molar value. The source made the active and inactive calls. The rule behind the calls is not given here.

Dual specificity protein kinase CLK4 (Mus musculus), sequence (O35493 whole entry, looked up, the tested form may be a part): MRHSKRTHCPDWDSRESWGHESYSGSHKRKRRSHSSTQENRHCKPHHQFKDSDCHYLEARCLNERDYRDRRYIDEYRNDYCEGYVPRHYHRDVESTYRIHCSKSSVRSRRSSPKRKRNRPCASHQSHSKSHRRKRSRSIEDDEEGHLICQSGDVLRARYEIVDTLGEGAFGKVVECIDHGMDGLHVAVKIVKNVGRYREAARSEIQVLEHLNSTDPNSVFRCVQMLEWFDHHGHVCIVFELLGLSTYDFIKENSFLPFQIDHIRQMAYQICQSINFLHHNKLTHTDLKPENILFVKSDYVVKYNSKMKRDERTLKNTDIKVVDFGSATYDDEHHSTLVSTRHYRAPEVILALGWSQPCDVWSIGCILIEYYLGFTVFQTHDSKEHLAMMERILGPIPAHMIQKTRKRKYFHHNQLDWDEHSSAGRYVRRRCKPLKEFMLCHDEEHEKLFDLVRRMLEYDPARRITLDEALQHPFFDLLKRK
Cyclin-dependent kinase 5/CDK5 activator 1 (Homo sapiens), sequence (Q00535 whole entry): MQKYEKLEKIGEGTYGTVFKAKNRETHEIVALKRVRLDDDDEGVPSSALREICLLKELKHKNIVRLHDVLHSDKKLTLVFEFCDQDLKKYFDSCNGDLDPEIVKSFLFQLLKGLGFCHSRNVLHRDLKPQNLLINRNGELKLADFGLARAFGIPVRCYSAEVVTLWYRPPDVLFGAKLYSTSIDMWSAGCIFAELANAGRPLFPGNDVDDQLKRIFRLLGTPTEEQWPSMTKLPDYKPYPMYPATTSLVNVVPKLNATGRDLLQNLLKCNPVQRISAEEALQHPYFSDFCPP
Cyclin-dependent kinase 5/CDK5 activator 1 (Homo sapiens), sequence (Q15078 99-307 partner limits assumed): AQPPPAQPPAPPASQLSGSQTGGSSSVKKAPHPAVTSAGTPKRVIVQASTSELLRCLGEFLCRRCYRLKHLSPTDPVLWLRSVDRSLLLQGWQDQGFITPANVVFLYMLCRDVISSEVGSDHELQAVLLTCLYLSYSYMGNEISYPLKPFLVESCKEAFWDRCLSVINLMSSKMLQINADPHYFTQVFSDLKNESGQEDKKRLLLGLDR

Take `C1=C2CN3CCCC/C=C\CC[C@@H]4CN(CCCC/C=C\CC[C@H]1C3)CC[C@@H]24`: the inhibition entry (in [1]; in the experiment listed under Homo sapiens; in [2]; in [3]; in the experiment listed under Sus scrofa; in experiment [4]) was “inactive” in each case.

`ClC[N@@+]12CCCC/C=C\CC[C@@H]3C=C4CN(CCCC/C=C\CC[C@H](C1)[C@H]4CC2)C3`: the inhibition result in [5], in [6], in experiment [7], in experiment [8], in experiment [10] and in [11] was “inactive” throughout. The inhibition result (in [12]; with Leishmania major) was “inactive” throughout. For the same compound, the pIC50 in [9] is 5.22.

As usually defined, the pIC50 is the negative decadic logarithm of the IC50, by convention in mol/L.
